# Test results published in US11771709B2, “ALK protein degradation agent and anti-tumor application thereof” (ShanghaiTech University, priority 2017, dated 2023).
# Tests used:
# [1] = test system: SR (NPM-ALK) cells; test: Growth inhibition IC50 in ALCL SR cells (CCK8/WST, 72 hours); assay type: cell-based; details: SR cells
# [2] = test system: NCI-H3122 (EML4-ALK, V1) cells; test: Growth inhibition IC50 in lung cancer H3122 cells (Cell Titer Blue / Cell Titer Glo); details: for IC50: Homo sapiens, NCI-H3122, H3122 cells
# [3] = biological target: T1, ALK protein in H3122 (EML4-ALK) cells (Homo sapiens, UniProt Q9UM73); test: Western blot of ALK protein level (degradation, DC50), ALK phosphorylation and downstream signaling in H3122 cells; assay type: cell-based; details: for DC50: ALK protein degradation in H3122 cells
# T1 construct: EML4 (Echinoderm microtubule-associated protein-like 4, Q9HC35) fusion partner, variant 1; host or cells: NCI-H3122 lung adenocarcinoma cells; the other entry of the earlier key: EML4 (Q9HC35, Echinoderm microtubule-associated protein-like 4)
# T1 sequence (Q9UM73 with tags, fused parts or gaps): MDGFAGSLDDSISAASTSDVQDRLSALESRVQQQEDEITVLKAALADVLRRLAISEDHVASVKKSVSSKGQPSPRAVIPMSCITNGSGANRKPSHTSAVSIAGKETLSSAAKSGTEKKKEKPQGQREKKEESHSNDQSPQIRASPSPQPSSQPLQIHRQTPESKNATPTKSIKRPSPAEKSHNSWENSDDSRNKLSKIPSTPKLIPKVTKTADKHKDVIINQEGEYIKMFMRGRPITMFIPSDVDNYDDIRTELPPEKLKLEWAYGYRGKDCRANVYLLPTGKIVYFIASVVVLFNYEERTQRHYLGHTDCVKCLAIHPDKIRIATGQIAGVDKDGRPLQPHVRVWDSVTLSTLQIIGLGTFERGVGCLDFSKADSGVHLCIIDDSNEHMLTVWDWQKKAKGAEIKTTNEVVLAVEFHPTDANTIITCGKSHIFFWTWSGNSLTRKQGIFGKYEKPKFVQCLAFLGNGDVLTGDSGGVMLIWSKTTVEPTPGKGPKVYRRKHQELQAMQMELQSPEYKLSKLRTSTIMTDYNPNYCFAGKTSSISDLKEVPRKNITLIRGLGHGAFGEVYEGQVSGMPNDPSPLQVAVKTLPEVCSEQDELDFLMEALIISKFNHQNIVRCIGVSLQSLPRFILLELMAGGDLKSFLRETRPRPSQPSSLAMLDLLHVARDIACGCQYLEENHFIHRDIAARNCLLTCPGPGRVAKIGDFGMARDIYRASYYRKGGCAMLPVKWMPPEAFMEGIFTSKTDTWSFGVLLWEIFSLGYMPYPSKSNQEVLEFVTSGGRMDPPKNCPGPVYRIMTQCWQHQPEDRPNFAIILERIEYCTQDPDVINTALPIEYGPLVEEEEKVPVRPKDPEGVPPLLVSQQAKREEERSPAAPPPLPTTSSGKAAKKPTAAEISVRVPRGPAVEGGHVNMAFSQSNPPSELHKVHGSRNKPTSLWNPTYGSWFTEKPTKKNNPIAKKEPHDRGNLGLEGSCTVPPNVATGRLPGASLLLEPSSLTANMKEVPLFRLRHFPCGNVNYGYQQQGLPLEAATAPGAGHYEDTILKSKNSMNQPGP
IC50 ([2]; CTB (Cell Titer Blue)) [nM],DC50 [3] [nM],Structure (SMILES),also measured
428,–,"Cc1cc(Nc2ncc(Cl)c(Nc3ccccc3S(=O)(=O)C(C)C)n2)c(OC(C)C)cc1C1CCN(C(=O)CCCCCCC(=O)N[C@H](C(=O)N2C[C@H](O)C[C@H]2C(=O)NCc2ccc(-c3scnc3C)cc2)C(C)(C)C)CC1 [SIAIS074008, (2S,4R)-1-((S)-2-(8-(4-(4-((5-chloro-4-((2-(isopropylsulfonyl)phenyl)amino)pyrimidin-2-yl)amino)-5-isopropoxy-2-methylphenyl)piperidin-1-yl)-8-oxooctanamido)-3,3-dimethylbutanoyl)-4-hydroxy-N-(4-(4-methylthiazol-5-yl)benzyl)pyrrolidine-2-carboxamide]",growth inhibition effect [1]: IC50 at the nano mole range; growth inhibition effect ([2]; H3122 cells): IC50 at the nano mole range
209,100 to 500,"Cc1cc(Nc2ncc(Cl)c(Nc3ccccc3S(=O)(=O)C(C)C)n2)c(OC(C)C)cc1C1CCN(C(=O)CCCC(=O)N[C@H](C(=O)N2C[C@H](O)C[C@H]2C(=O)NCc2ccc(-c3scnc3C)cc2)C(C)(C)C)CC1 [SIAIS074018, (2S,4R)-1-((S)-2-(5-(4-(4-((5-chloro-4-((2-(isopropylsulfonyl)phenyl)amino)pyrimidin-2-yl)amino)-5-isopropoxy-2-methylphenyl)piperidin-1-yl)-5-oxopentanamido)-3,3-dimethylbutanoyl)-4-hydroxy-N-(4-(4-methylthiazol-5-yl)benzyl)pyrrolidine-2-carboxamide]",–
125,50 to 100,"Cc1cc(Nc2ncc(Cl)c(Nc3ccccc3S(=O)(=O)C(C)C)n2)c(OC(C)C)cc1C1CCN(C(=O)CCCCC(=O)N[C@H](C(=O)N2C[C@H](O)C[C@H]2C(=O)NCc2ccc(-c3scnc3C)cc2)C(C)(C)C)CC1 [SIAIS074021, (2S,4R)-1-((S)-2-(6-(4-(4-((5-chloro-4-((2-(isopropylsulfonyl)phenyl)amino)pyrimidin-2-yl)amino)-5-isopropoxy-2-methylphenyl)piperidin-1-yl)-6-oxohexanamido)-3,3-dimethylbutanoyl)-4-hydroxy-N-(4-(4-methylthiazol-5-yl)benzyl)pyrrolidine-2-carboxamide]",–
269,20 to 100,"Cc1cc(Nc2ncc(Cl)c(Nc3ccccc3S(=O)(=O)C(C)C)n2)c(OC(C)C)cc1C1CCN(C(=O)CCCCCC(=O)N[C@H](C(=O)N2C[C@H](O)C[C@H]2C(=O)NCc2ccc(-c3scnc3C)cc2)C(C)(C)C)CC1 [SIAIS074022, (2S,4R)-1-((S)-2-(7-(4-(4-((5-chloro-4-((2-(isopropylsulfonyl)phenyl)amino)pyrimidin-2-yl)amino)-5-isopropoxy-2-methylphenyl)piperidin-1-yl)-7-oxoheptanamido)-3,3-dimethylbutanoyl)-4-hydroxy-N-(4-(4-methylthiazol-5-yl)benzyl)pyrrolidine-2-carboxamide]",–
721,10 to 50,"Cc1cc(Nc2ncc(Cl)c(Nc3ccccc3S(=O)(=O)C(C)C)n2)c(OC(C)C)cc1C1CCN(C(=O)CCCCCCCC(=O)N[C@H](C(=O)N2C[C@H](O)C[C@H]2C(=O)NCc2ccc(-c3scnc3C)cc2)C(C)(C)C)CC1 [SIAIS074024, (2S,4R)-1-((S)-2-(9-(4-(4-((5-chloro-4-((2-(isopropylsulfonyl)phenyl)amino)pyrimidin-2-yl)amino)-5-isopropoxy-2-methylphenyl)piperidin-1-yl)-9-oxononanamido)-3,3-dimethylbutanoyl)-4-hydroxy-N-(4-(4-methylthiazol-5-yl)benzyl)pyrrolidine-2-carboxamide]","concentration at which ALK protein level was reduced ([3]; H3122 cells, western blot): 50 nM"
1240,100 to 500,"Cc1cc(Nc2ncc(Cl)c(Nc3ccccc3S(=O)(=O)C(C)C)n2)c(OC(C)C)cc1C1CCN(C(=O)CCCCCCCCC(=O)N[C@H](C(=O)N2C[C@H](O)C[C@H]2C(=O)NCc2ccc(-c3scnc3C)cc2)C(C)(C)C)CC1 [SIAIS074025, (2S,4R)-1-((S)-2-(10-(4-(4-((5-chloro-4-((2-(isopropylsulfonyl)phenyl)amino)pyrimidin-2-yl)amino)-5-isopropoxy-2-methylphenyl)piperidin-1-yl)-10-oxodecanamido)-3,3-dimethylbutanoyl)-4-hydroxy-N-(4-(4-methylthiazol-5-yl)benzyl)pyrrolidine-2-carboxamide]",–
15,10 to 100,"Cc1cc(Nc2ncc(Cl)c(Nc3ccccc3S(=O)(=O)C(C)C)n2)c(OC(C)C)cc1C1CCN(C(=O)CCOCCOCCNc2cccc3c2C(=O)N(C2CCC(=O)NC2=O)C3=O)CC1 (centres unmarked) [SIAIS151023, 4-((2-(2-(3-(4-(4-((5-chloro-4-((2-(isopropylsulfonyl)phenyl)amino)pyrimidin-2-yl)amino)-5-isopropoxy-2-methylphenyl)piperidin-1-yl)-3-oxopropoxy)ethoxy)ethyl)amino)-2-(2,6-dioxopiperidin-3-yl)isoindoline-1,3-dione]",IC50 ([2]; CTG (Cell Titer Glo)): 76 nM
23,10 to 50,"Cc1cc(Nc2ncc(Cl)c(Nc3ccccc3S(=O)(=O)C(C)C)n2)c(OC(C)C)cc1C1CCN(C(=O)CCOCCOCCOCCOCCOCCNc2cccc3c2C(=O)N(C2CCC(=O)NC2=O)C3=O)CC1 (centres unmarked) [SIAIS151029, 4-((18-(4-(4-((5-chloro-4-((2-(isopropylsulfonyl)phenyl)amino)pyrimidin-2-yl)amino)-5-isopropoxy-2-methylphenyl)piperidin-1-yl)-18-oxo-3,6,9,12,15-pentaoxaoctadecyl)amino)-2-(2,6-dioxopiperidin-3-yl)isoindoline-1,3-dione]",IC50 ([2]; CTG (Cell Titer Glo)): 95 nM
393,–,"Cc1cc(Nc2ncc(Cl)c(Nc3ccccc3S(=O)(=O)C(C)C)n2)c(OC(C)C)cc1C1CCN(C(=O)CCOCCOCCC(=O)N[C@H](C(=O)N2C[C@H](O)C[C@H]2C(=O)NCc2ccc(-c3scnc3C)cc2)C(C)(C)C)CC1 [SIAIS151038, (2S,4R)-1-((S)-2-(3-(2-(3-(4-(4-((5-chloro-4-((2-(isopropylsulfonyl)phenyl)amino)pyrimidin-2-yl)amino)-5-isopropoxy-2-methylphenyl)piperidin-1-yl)-3-oxopropoxy)ethoxy)propanamido)-3,3-dimethylbutanoyl)-4-hydroxy-N-(4-(4-methylthiazol-5-yl)benzyl)pyrrolidine-2-carboxamide]",–
441,–,"Cc1cc(Nc2ncc(Cl)c(Nc3ccccc3S(=O)(=O)C(C)C)n2)c(OC(C)C)cc1C1CCN(C(=O)CCOCCOCCOCCC(=O)N[C@H](C(=O)N2C[C@H](O)C[C@H]2C(=O)NCc2ccc(-c3scnc3C)cc2)C(C)(C)C)CC1 [SIAIS151039, (2S,4R)-1-((S)-2-(tert-butyl)-16-(4-(4-((5-chloro-4-((2-(isopropylsulfonyl)phenyl)amino)pyrimidin-2-yl)amino)-5-isopropoxy-2-methylphenyl)piperidin-1-yl)-4,16-dioxo-7,10,13-trioxa-3-azahexadecanoyl)-4-hydroxy-N-(4-(4-methylthiazol-5-yl)benzyl)pyrrolidine-2-carboxamide]",–
141,–,"Cc1cc(Nc2ncc(Cl)c(Nc3ccccc3S(=O)(=O)C(C)C)n2)c(OC(C)C)cc1C1CCN(C(=O)CCOCCOCCOCCOCCC(=O)N[C@H](C(=O)N2C[C@H](O)C[C@H]2C(=O)NCc2ccc(-c3scnc3C)cc2)C(C)(C)C)CC1 [SIAIS151040, (2S,4R)-1-((S)-2-(tert-butyl)-19-(4-(4-((5-chloro-4-((2-(isopropylsulfonyl)phenyl)amino)pyrimidin-2-yl)amino)-5-isopropoxy-2-methylphenyl)piperidin-1-yl)-4,19-dioxo-7,10,13,16-tetraoxa-3-azanonadecanoyl)-4-hydroxy-N-(4-(4-methylthiazol-5-yl)benzyl)pyrrolidine-2-carboxamide]",–
332,–,"Cc1cc(Nc2ncc(Cl)c(Nc3ccccc3S(=O)(=O)C(C)C)n2)c(OC(C)C)cc1C1CCN(C(=O)CCOCCOCCOCCOCCOCCC(=O)N[C@H](C(=O)N2C[C@H](O)C[C@H]2C(=O)NCc2ccc(-c3scnc3C)cc2)C(C)(C)C)CC1 [SIAIS151041, (2S,4R)-1-((S)-2-(tert-butyl)-22-(4-(4-((5-chloro-4-((2-(isopropylsulfonyl)phenyl)amino)pyrimidin-2-yl)amino)-5-isopropoxy-2-methylphenyl)piperidin-1-yl)-4,22-dioxo-7,10,13,16,19-pentaoxa-3-azadocosanoyl)-4-hydroxy-N-(4-(4-methylthiazol-5-yl)benzyl)pyrrolidine-2-carboxamide]",–
153,–,"Cc1cc(Nc2ncc(Cl)c(Nc3ccccc3S(=O)(=O)C(C)C)n2)c(OC(C)C)cc1C1CCN(C(=O)COCCOCC(=O)N[C@H](C(=O)N2C[C@H](O)C[C@H]2C(=O)NCc2ccc(-c3scnc3C)cc2)C(C)(C)C)CC1 [SIAIS151042, (2S,4R)-1-((S)-2-(2-(2-(2-(4-(4-((5-chloro-4-((2-(isopropylsulfonyl)phenyl)amino)pyrimidin-2-yl)amino)-5-isopropoxy-2-methylphenyl)piperidin-1-yl)-2-oxoethoxy)ethoxy)acetamido)-3,3-dimethylbutanoyl)-4-hydroxy-N-(4-(4-methylthiazol-5-yl)benzyl)pyrrolidine-2-carboxamide]",–
156,–,"Cc1cc(Nc2ncc(Cl)c(Nc3ccccc3S(=O)(=O)C(C)C)n2)c(OC(C)C)cc1C1CCN(C(=O)CCCCCNc2cccc3c2C(=O)N(C2CCC(=O)NC2=O)C3=O)CC1 (centres unmarked) [SIAIS151043, 4-((6-(4-(4-((5-chloro-4-((2-(isopropylsulfonyl)phenyl)amino)pyrimidin-2-yl)amino)-5-isopropoxy-2-methylphenyl)piperidin-1-yl)-6-oxohexyl)amino)-2-(2,6-dioxopiperidin-3-yl)isoindoline-1,3-dione]",–
